Test [1] has as its system HEp-2. Nature of the test: Induction of DNA damage in human Hep2 cells assessed as gamma-H2AX positive cells at 10 uM after 24 hrs by DAPI staining based immunofluorescence analysis relative to control. In kind it is functional.
Test [2] deals with CAPAN-1. Put plainly: Induction of apoptosis in human Capan1 cells assessed as increase in apoptotic cells incubated for 72 hrs and measured at 3 hrs interval by IncuCyte Caspase 3/7 Green reagent based assay. In kind it is functional, cell-based.
The next test has as its system LN-229. Nature of the test: Antiproliferative activity against human LN229 cells assessed as reduction in cell viability incubated for 72 hrs by IncuCyte live-cell imaging assay. In kind it is functional, cell-based. As to conditions: LN-229, 72 h.
The subject of test [3] is HEp-2. Nature of the test: Induction of DNA damage in human Hep2 cells assessed as increase in gamma-H2AX positive cells after 24 hrs by DAPI staining based immunofluorescence analysis. In kind it is functional, cell-based.
The next test deals with K562. Nature of the test: Antiproliferative activity against human K562 cells assessed as reduction in cell viability incubated for 72 hrs by IncuCyte live-cell imaging assay. It is filed as functional, cell-based. The conditions noted are these: K562, 72 h.
The subject of the next test is Salmon testes DNA. Nature of the test: Binding affinity to salmon sperm DNA assessed as DNA intercalation at 20 uM incubated for 20 mins by acridine orange orange dye based fluorescence polarization assay. The conditions noted are these: Salmonidae. In kind it is nucleic-acid assay. On the technique in general: Polarisation of emitted light reports the rotation of a fluorescent probe.

The next test concerns the target Tubulin (Homo sapiens) (UniProt P68371+Q9H4B7+P0DPH7+P68366+Q13509+Q71U36+P04350+Q3ZCM7+P07437+P68363+Q9BQE3+Q6PEY2+Q13885+Q9BVA1+Q9BUF5). Put plainly: Inhibition of tubulin polymerization in human Hep2 cells at 100 uM after 3 hrs by DAPI-staining based fluorescence microscopic assay. It is filed as cell-based. The conditions noted are these: HEp-2.
Test [4] in a line: Antiproliferative activity against human DND41 cells assessed as reduction in cell viability incubated for 72 hrs by IncuCyte live-cell imaging assay. In kind it is functional, cell-based. As to conditions: DND41, 72 h.
The subject of the next test is HCT-116. Put plainly: Antiproliferative activity against human HCT116 cells assessed as reduction in cell viability incubated for 72 hrs by IncuCyte live-cell imaging assay. In kind it is functional, cell-based. As to conditions: HCT-116, 72 h.
Another test deals with HL-60. Nature of the test: Antiproliferative activity against human HL60 cells assessed as reduction in cell viability incubated for 72 hrs by IncuCyte live-cell imaging assay. In kind it is functional, cell-based. As to conditions: HL-60, 72 h.
Test [5] deals with HEp-2. Nature of the test: Induction of DNA damage in human Hep2 cells assessed as gamma-H2AX positive cells at 100 uM after 24 hrs by DAPI staining based immunofluorescence analysis (reference value: 0.51%). In kind it is functional.
A further test has as its system NCI-H460. Nature of the test: Antiproliferative activity against human NCI-H460 cells assessed as reduction in cell viability incubated for 72 hrs by IncuCyte live-cell imaging assay. The conditions noted are these: NCI-H460, 72 h. In kind it is functional, cell-based.
Another test deals with PBMC. Nature of the test: Induction of apoptosis in human PBMC assessed as caspase 3/7 activation incubated for 72 hrs and measured at 3 hrs interval by IncuCyte Caspase 3/7 Green reagent based assay. In kind it is cell-based.
Test [6] has as its system CAPAN-1. Nature of the test: Antiproliferative activity against human Capan1 cells assessed as reduction in cell viability incubated for 72 hrs by IncuCyte live-cell imaging assay. In kind it is functional, cell-based. As to conditions: CAPAN-1, 72 h.
Test [7] deals with HEp-2. Put plainly: Induction of DNA damage in human Hep2 cells assessed as gamma-H2AX positive cells at 1 uM after 24 hrs by DAPI staining based immunofluorescence analysis relative to control. In kind it is functional.
The subject of a further test is Z-138. Put plainly: Antiproliferative activity against human Z138 cells assessed as reduction in cell viability incubated for 72 hrs by IncuCyte live-cell imaging assay. It is filed as functional, cell-based. As to conditions: Z-138, 72 h.

Calls of active or inactive are those of the source. The rule behind the calls is not given here.

For `Nc1ncnn2c([C@@H]3O[C@H](CO)[C@@H](O)[C@H]3O)cc(C#CC3CC3)c12`, the Activity was 5.2% in the test with HEp-2 [1], “Dose-dependent effect” with HEp-2 [3], 16.22% in the test with HEp-2 [5] and 3.22% in the test with HEp-2 [7]. For the same compound, the result in the test with CAPAN-1 [2] and in the test with Salmon testes DNA was Active. For the same compound, the half-inhibitory concentration (IC50) in the test on LN-229 stood at 0.03 µM; in the test on K562, 0.04 µM; in [4], 0.04 µM; in the test with HCT-116, 0.05 µM; in the test with HL-60, 0.04 µM; with NCI-H460 it was 0.08 µM. The IC50 was 0.1 to 0.4 µM in the test on PBMC, 0.02 µM in the test on CAPAN-1 [6] and 0.02 µM with Z-138. The inhibition result at Tubulin (Homo sapiens) is “Active”.

`CCCC#Cc1cc([C@@H]2O[C@H](CO)[C@@H](O)[C@H]2O)n2ncnc(N)c12`: the Activity with HEp-2 [1] was 0.82%; with HEp-2 [3] it was “Dose-dependent effect”; with HEp-2 [5], 9.38%; in the test with HEp-2 [7] it was 1.14%. In addition, the IC50 in the test on LN-229 was 0.04 µM; with K562, 1.1 µM; in test [4], 0.08 µM; in the test on HCT-116, 0.2 µM; with HL-60, 0.2 µM; in the test with NCI-H460, 0.4 µM. Also, the figures for the IC50 in the test on PBMC, in the test with CAPAN-1 [6] and in the test on Z-138 were 0.05 to 11 µM, 0.02 µM and 0.02 µM, respectively. Besides, the outcome with Salmon testes DNA was Active. The inhibition entry at Tubulin (Homo sapiens) is “Active”.

The term IC50 denotes the concentration that gives 50% inhibition.

These data come from ChEMBL document CHEMBL4622990, “Synthesis and Antitumor Activity of C-7-Alkynylated and Arylated Pyrrolotriazine C-Ribonucleosides” (ACS Med Chem Lett, 2020).
